These results are taken from ChEMBL document CHEMBL5465560, “Selectivity Literature for EUbOPEN Chemogenomic Library” (2024).

The target of assay [1] is T1, Gamma-aminobutyric acid receptor subunit alpha-1 (Homo sapiens) (UniProt P14867).
T1 sequence (whole entry): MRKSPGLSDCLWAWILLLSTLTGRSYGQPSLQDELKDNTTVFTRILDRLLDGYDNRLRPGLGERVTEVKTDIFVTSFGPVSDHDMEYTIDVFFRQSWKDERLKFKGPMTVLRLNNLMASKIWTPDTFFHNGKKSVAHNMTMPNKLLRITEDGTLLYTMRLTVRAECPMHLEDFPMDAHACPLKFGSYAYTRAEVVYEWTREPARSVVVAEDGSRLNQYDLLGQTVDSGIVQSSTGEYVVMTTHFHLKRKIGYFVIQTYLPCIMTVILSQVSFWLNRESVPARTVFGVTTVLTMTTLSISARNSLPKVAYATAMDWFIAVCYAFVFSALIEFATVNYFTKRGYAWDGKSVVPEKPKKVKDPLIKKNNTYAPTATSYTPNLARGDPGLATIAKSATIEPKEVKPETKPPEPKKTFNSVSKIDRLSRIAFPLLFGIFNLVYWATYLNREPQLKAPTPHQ
In words: Selectivity interaction (GPCR panel (PDSP screen)) EUB0001079a GABRA1. Conditions: at 10 µM.

Assay [2] deals with T2, Serine/threonine-protein kinase ICK (Homo sapiens) (UniProt Q9UPZ9).
T2 sequence (whole entry): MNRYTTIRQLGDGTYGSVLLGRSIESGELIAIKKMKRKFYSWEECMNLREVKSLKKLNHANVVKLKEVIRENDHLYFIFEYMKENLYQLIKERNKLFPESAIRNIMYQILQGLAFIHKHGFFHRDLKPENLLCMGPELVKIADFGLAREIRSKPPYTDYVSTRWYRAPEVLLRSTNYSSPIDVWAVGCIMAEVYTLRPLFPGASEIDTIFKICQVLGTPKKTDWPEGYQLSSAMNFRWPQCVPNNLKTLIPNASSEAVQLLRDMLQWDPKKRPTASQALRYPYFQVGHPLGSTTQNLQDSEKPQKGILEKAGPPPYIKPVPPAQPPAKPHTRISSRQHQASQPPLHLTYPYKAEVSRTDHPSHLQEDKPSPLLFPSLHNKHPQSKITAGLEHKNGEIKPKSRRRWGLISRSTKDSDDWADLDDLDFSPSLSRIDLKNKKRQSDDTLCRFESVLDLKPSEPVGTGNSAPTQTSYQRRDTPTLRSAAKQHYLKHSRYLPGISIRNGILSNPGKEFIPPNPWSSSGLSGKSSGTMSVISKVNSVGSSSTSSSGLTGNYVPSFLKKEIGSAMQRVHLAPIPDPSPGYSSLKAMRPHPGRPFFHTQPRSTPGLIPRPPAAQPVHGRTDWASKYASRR
In words: Selectivity interaction (KinomeScan (DiscoverX)) EUB0001049a ICK. To be noted: at 1 µM.

Assay [3] addresses T3, Serine/threonine-protein kinase DCLK1 (Homo sapiens) (UniProt O15075).
T3 sequence (whole entry): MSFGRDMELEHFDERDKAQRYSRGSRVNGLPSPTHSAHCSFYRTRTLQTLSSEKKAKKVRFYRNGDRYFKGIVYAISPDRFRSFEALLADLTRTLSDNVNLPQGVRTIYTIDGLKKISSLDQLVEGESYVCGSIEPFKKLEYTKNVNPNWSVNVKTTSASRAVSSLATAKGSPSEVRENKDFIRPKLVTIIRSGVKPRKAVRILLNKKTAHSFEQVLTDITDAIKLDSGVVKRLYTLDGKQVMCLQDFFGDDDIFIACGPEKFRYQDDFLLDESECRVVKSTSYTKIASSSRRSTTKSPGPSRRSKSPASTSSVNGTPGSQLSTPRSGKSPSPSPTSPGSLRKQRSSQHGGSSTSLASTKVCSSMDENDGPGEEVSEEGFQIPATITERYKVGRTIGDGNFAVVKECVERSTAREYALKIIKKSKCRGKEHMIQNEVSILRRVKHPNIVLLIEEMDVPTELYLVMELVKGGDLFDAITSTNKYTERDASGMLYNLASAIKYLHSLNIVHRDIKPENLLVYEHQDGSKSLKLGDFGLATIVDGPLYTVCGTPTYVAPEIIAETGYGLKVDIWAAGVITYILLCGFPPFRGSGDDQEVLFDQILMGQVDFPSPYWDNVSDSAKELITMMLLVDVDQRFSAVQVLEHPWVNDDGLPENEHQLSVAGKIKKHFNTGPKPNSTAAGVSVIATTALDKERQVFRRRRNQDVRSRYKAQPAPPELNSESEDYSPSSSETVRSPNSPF
The assay is described as follows: Selectivity interaction (KinomeScan (DiscoverX)) EUB0000666a DCLK1. Conditions: at 10 µM.

Assay [4] addresses Phosphatidylinositol 4-phosphate 5-kinase type-1 gamma (Homo sapiens) (UniProt O60331). In words: Selectivity interaction (KinomeScan (DiscoverX)) EUB0000666a PIP5K1C. To be noted: at 10 µM.
Assay [5] deals with T4, Serine/threonine-protein kinase RIO1 (Homo sapiens) (UniProt Q9BRS2).
T4 sequence (whole entry): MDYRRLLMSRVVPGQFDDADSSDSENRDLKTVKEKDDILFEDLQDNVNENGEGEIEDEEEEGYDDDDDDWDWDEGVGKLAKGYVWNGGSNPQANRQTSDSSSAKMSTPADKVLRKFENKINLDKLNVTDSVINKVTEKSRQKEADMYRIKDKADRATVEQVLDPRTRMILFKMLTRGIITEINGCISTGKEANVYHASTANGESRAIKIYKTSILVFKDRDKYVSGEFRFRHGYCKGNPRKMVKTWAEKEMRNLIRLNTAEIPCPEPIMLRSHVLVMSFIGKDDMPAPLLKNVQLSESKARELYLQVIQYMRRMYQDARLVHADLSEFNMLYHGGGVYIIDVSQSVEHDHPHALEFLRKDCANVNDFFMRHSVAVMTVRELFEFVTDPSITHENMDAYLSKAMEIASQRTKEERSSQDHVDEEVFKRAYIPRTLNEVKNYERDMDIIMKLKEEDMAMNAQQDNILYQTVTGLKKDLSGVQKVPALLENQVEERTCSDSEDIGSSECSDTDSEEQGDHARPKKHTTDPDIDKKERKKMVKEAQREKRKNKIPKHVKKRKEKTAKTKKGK
In words: Selectivity interaction (KinomeScan (DiscoverX)) EUB0000607a RIOK1. Conditions: at 10 µM.

The target of a further assay is Focal adhesion kinase 1 (Homo sapiens, UniProt Q05397). The assay is described as follows: Selectivity interaction (KinomeScan (DiscoverX)) EUB0000618a PTK2. To be noted: at 10 µM.
Focal adhesion kinase 1, sequence (Q05397 2-1052 limits assumed): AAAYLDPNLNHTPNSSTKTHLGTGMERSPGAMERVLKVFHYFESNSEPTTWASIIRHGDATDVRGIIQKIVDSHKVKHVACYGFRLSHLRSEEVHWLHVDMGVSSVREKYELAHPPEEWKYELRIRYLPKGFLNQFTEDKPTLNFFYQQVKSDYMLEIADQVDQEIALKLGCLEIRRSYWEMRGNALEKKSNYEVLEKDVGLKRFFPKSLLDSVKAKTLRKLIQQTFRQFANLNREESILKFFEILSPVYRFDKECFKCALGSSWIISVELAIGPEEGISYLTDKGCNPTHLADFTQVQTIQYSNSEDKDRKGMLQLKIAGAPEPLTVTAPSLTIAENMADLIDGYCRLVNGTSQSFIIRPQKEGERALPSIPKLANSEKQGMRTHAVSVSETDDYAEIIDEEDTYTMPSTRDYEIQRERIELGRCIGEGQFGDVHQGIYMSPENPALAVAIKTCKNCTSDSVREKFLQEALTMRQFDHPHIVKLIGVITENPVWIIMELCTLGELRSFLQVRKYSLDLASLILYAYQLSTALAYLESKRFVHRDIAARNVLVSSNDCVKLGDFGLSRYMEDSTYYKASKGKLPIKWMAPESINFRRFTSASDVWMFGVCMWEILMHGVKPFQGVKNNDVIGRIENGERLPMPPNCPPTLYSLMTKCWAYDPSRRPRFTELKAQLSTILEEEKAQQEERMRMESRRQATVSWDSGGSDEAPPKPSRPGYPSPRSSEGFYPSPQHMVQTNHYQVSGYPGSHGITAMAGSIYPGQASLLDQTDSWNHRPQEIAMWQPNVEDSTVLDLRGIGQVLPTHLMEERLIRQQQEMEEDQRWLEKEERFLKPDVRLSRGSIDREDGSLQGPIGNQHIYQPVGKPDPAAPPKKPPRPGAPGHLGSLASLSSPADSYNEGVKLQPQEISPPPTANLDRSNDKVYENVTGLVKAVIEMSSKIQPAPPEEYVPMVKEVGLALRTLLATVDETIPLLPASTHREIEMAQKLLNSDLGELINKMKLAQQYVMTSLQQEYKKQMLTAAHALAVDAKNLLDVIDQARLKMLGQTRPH

Phosphatidylinositol 4-phosphate 5-kinase type-1 gamma (Homo sapiens), sequence (O60331 whole entry): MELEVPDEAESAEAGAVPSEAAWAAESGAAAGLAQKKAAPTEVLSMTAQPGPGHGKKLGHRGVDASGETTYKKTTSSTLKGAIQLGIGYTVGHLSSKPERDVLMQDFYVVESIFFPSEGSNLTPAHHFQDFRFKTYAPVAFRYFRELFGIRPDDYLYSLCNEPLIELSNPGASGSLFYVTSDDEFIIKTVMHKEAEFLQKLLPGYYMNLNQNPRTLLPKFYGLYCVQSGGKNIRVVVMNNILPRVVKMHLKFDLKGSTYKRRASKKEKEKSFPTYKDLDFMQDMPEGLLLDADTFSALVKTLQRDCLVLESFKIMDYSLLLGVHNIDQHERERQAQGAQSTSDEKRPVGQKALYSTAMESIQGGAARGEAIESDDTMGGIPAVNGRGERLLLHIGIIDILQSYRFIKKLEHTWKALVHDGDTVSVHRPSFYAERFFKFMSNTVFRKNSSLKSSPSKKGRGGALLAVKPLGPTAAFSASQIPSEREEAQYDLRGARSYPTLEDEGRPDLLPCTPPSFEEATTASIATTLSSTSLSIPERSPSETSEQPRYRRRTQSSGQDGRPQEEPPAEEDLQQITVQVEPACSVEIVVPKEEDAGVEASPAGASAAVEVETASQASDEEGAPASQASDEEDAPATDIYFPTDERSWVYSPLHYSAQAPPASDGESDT

`Nc1cnc(N2CCc3cc(S(=O)(=O)Nc4c(F)cc(Cl)cc4F)cc(N4CCCC4=O)c32)nc1` [TP-020n] returned a % of inhibition in assay [1] of 20.5%.

`COc1cc(Nc2nc(C)cc(-c3cnn4nc(OC)ccc34)n2)cc(C(F)(F)F)c1`: the % of control in assay [2] was found to be 85%. As to `O=C(NOC[C@H](O)CO)c1ccc(F)c(F)c1Nc1ccc(I)cc1F`, the % of control in assay [3] and in assay [4] was 100% in each case. With `CNC(=O)Nc1ccc(-c2nc(N3CC4CCC(C3)O4)c3cnn(C4CCC5(CC4)OCCO5)c3n2)cc1`, in assay [5], the % of control turned out to be 91%. As for `O[C@H]1CC[C@H](Nc2ncc3nc(Nc4c(F)cc(F)cc4F)n([C@H]4CCOC4)c3n2)CC1`, at Focal adhesion kinase 1, the % of control came out at 100%.
